# From patent EP0280873A1, “Piperidines, medicines containing them and process for their preparation” (Dr. Karl Thomae GmbH, priority 1987, dated 1988)
# Counter-ions that a name gives are not always drawn. Like-named read-outs stand apart in the source and are kept apart here.
# Legend:
# [1] = test system: mit Reserpin behandelten Maus; assay: Anti-Parkinson effect: induction of motility in mice treated with reserpine 24 h earlier; type: in vivo; details: 2 mg/kg s.c., measured 20 min later, group of 6 mice, x ± sx; saline controls ca. 5
# Experimental: 3. Bestimmung der Anti-Parkinson-Wirkung nach der Methode von Hinzen D. et al., European Journal of Pharmacology 131, 75-88 (1986):
# a) Motilitätsauslösung an der 24 Stunden zuvor mit Reserpin behandelten Maus:
# Mäuse werden 24 Stunden vor dem Experiment mit 5 mg/kg Reserpin i.p. behandelt; die Tiere werden bei 25-30°C gehalten und 3 × mit 2 ml einer 5%igen Glucose-lösung in Tyrode s.c. behandelt. Gruppen zu je 6 Tieren erhalten die Testsubstanz mit 2 mg/kg s.c. injiziert. 20 Minuten später werden die Tiere zur Aktivitätsmessung in Beobachtungskäfige gesetzt, die mit einer Infrarotlichtschranke ausgerüstet sind. Meß-wert ist die Häufigkeit des Passierens des Infrarotstrahles durch eine Gruppe von 6 Mäusen in 5 Minuten ("Laufimpulse/5 Minuten").
# Pro Substanz werden 6 Gruppen geprüft. Kontrolltiere erhalten isotone Kochsalzlösung s.c..
# Als Ergebnis werden die mit der Testsubstanz erzielten Laufimpulse/5 Minuten dargestellt (x ± sx) Kontrolltiere (Kochsalzlösung) zeigen minimale Aktivität (ca. 5 Laufimpulse/5 Minuten).
# [2] = molecular target: T1, Dopamin (D₂)-Rezeptor (Rattus norvegicus, UniProt P61169); assay: Dopamine (D2) receptor binding affinity, 3H-spiroperidol displacement in rat striatal homogenate; design: species or system Ratten
# T1 construct: Die Striata werden herauspräpariert und in 25 ml eiskaltem Puffer; from tissue; host or cells: rat striatum membrane homogenate
# Experimental: 1.) Bestimmung der Dopamin (D₂)-Rezeptorbindungsaffinitäten nach der modifizierten Methode von D.J. de Vries und P.M. Beart (Europ. J. Pharmacology 109, 417-419 (1985)):
# Ratten werden durch Schlag betäubt, dekapitiert und das Ge hirn entnommen. Die Striata werden herauspräpariert und in 25 ml eiskaltem Puffer (50 mM TRIS-HCl, 1 mM EDTA, 5 mM MgCl₂, 1mM Ascorbinsäure, pH=7,20) homogenisiert. Das Homogenat wird 15 Minuten bei 0°C und 50000 × g zentrifugiert. Der Überstand wird verworfen. Das Pellet wird durch Resuspension und erneute Zentrifugation zweimal gewaschen und anschließend bei 37°C eine halbe Stunde vorinkubiert. Das Inkubat wird wie zuvor beschrieben zentrifugiert und der Überstand verworfen. Das Pellet wird in 60 ml Puffer resuspen diert, homogenisiert und dann mit Puffer 1:500 bezogen auf das Striatagewicht verdünnt.
# Für den Inkubationsansatz werden 10 µl ³H-Spiroperidol-Lö-sung ([…]; Endkonzentration: 2,5 × 10⁻¹⁰ M), 970 µl Puffer sowie 20 µl Testsubstanzlösung (Endkonzentration: 10⁻¹¹-10⁻⁴ M) vorgelegt. Die unspezifische Bindung wird in Gegenwart von 1 µM Haloperidol bestimmt. Durch Zugabe von 1 ml Homogenatlösung zu dieser Vorlage wird der Assay gestartet. Die Inkubationszeit beträgt 60 Minuten bei Raumtemperatur. Nach Ablauf dieser Zeit wird das Inkubat über ein GF/B-Filter abgesaugt und mit 15 ml eiskaltem Puffer gewaschen. Das feuchte Filter wird mit Instagel® versetzt und über Nacht extrahiert. Anschließend wird die verbliebene Radioaktivität in einem Packard CA 2000 Szintillationscounter bei einer Zählausbeute von 50-55 % gezählt.
# Mit Hilfe eines 2-Bindungsstellen-Iterationsprogrammes werden die IC₅₀-Werte ermittelt und daraus die Ki-Werte berechnet.
# [3] = test system: Dopamin-Autorezeptoren; assay: Inhibition of dopamine turnover (AMPT-induced fall of whole-brain dopamine) in mice; type: in vivo, Mäusen; details: 5 mg/kg s.c., AMPT 250 mg/kg i.p. at 15 min, whole brain dopamine at 4 h 15 min
# Experimental: 2. Bestimmung der Dopaminturnoverhemmung:
# Die Dopaminturnoverhemmung wurde an Mäusen gemessen. Bei Tieren, die mit α-Methyl-p-tyrosin (AMPT) (250 mg/kg i.p.) zum Zeitpunkt 15 Minuten des Experimentes behandelt werden, fällt die Dopaminkonzentration im Gesamthirn mit fortschreitender Versuchsdauer ab. Durch Substanzen, die an Dopamin-Autorezeptoren wirken, kann der Dopaminabfall (im Vergleich zu mit Kochsalzlösung behandelten Kontrolltieren) verhindert werden. Testsubstanzen werden zum Zeitpunkt 0 des Experiments subkutan appliziert (5 mg/kg s.c.). Zum Zeitpunkt 4 Stunden und 15 Minuten des Experiments werden die Tiere getötet und die Gehirne der Dopaminbestimmung mittels Hochdruckflüssigkeitschromatographie mit elektrochemischer Detektion zugeführt. Bestimmt wird die durch die Testsubstanz bewirkte prozentuale Hemmung des durch AMPT induzierten Dopaminabfalls: […]
# [4] = test system: MPTP-Affen; assay: Anti-Parkinson effect: abolition of Parkinson symptoms in the MPTP monkey; type: in vivo, Rhesusaffen; details: for Dauer (Wirkungsdauer): at the minimal dose; for minimal effective dose: Macaca mulatta, im, read-out: Dosis (Mindestdosen, die zur Aufhebung der Parkinsonsymptomatik führen)
# Text: b) Aufhebung der Parkinsonsymptome am MPTP-Affen nach der modifizierten Methode von Burns, R.S. und Chuang, C.: Proc. Natl. Acad. Sci. 80, 4546-4550 (1983):
# Das durch das Neurotoxin 1-Methyl-4-phenyl-1,2,3,6-tetrahydro-pyridin (MPTP) beim Menschen und beim Affen ausgelöste, irreversible neurologische Krankheitsbild ähnelt in seiner klinischen, pathologischen, biochemischen und pharmakologischen Ausprägung weitgehend der idiopathischen Parkinson'schen Erkrankung (Markey et al., Nature 311, 464 (1984)). Ursache dieser überzeugenden Übereinstimmung ist die Tatsache, daß MPTP selektiv jene dopaminergen Nervenzellen in der Substantia nigra des Gehirns zerstört, welche auch bei der natürlich auftretenden Parkinson'schen Erkrankung durch degenerative Prozesse zerstört werden. Es wird diskutiert, daß auch die Ursache der idiopathischen Parkinson'schen Erkrankung im Organismus entstehendes MPTP oder eine ähnliche chemische Verbindung ist (Snyder, S.H., Nature 311, 514 (1984)). Möglicherweise bedingt durch den spezifischen Metabolismus des MPTP ist die klinische Ausprägung des MPTP-Parkinson'bildes bisher außer beim Menschen nur beim Affen nachweisbar.
# Das an Rhesusaffen verwirklichte MPTP-Modell ist daher in hervorragendem Maße geeignet, die Wirkung von Anti-Parkinson-Medikamenten zu prüfen. Insgesamt 7 Rhesusaffen waren an dem Versuch beteiligt. Sie hatten über mehrere Tage verteilt, kumulative Dosen von 2,4-6,25 mg/kg MPTP erhalten, bis stabile und irreversible Parkinson-Symptome aufgetreten waren. Im Vordergrund der Symptomatik stand die Bradykinesie, die alle Tiere zeigten, teilweise sogar bis hin zur Akinesie. Kein Tier war in der Lage, spontan Wasser oder Futter aufzunehmen. Die Reaktivität war stark vermindert, meist verharrten die Tiere in einer typischen Beugehaltung. Tremor wurde gelegentlich gesehen. Die Extremitäten wiesen einen Rigor auf. Bei dem Versuch einer Willkür-Motorik traten häufig klonische Krämpfe auf.
# Die nachfolgenden Verbindungen wurden jeweils an 2-3 der so vorbehandelten Tiere getestet. Bei intramuskulärer Gabe wurden nach etwa 5 bis 10 Minuten erste koordinierte Willkürbewegungen möglich, die in den folgenden 10 bis 30 Minuten von einer allmählichen, weitestgehenden Normalisierung der Motorik gefolgt waren. Die Tiere waren in der Lage, Nahrung aufzunehmen. Sie verhielten sich innerhalb ihrer Käfige regelgerecht, dies galt auch hinsichtlich Vigilanz und artspezifischen Verhaltens. Als Restsymptomatik wurde gelegentlich leichter Ruhetremor registriert.
# Sobald die Wirkung der Verbindungen nachließ, verfielen die Tiere wieder in die oben beschriebene Parkinson-Symptomatik; eine erneute Applikation der Verbindungen führte wieder zur Besserung bzw. weitgehenden Aufhebung der klinischen Erscheinungen.
# Nebenwirkungen traten in den bisher angewandten Dosierungen nicht in Erscheinung.
# In der nachfolgenden Tabelle werden sowohl die Mindestdosen, die zur Aufhebung der Parkinsonsymptomatik führen, angegeben, als auch die Wirkungsdauer.
# [5] = test system: Mäusen; assay: Toxicity in mice, oral dosing; type: in vivo; details: doses up to 500 mg/kg p.o.
# Text: Ferner sind die erfindungsgemäß hergestellten Verbindungen weitgehend untoxisch. So konnten z.
# [6] = rat striata, 3H-Spiroperidol 2,5 × 10⁻¹⁰ M, 60 min at room temperature, Ki calculated from IC50, read-out: Ki
# [7] = MPTP-treated rhesus monkeys, i.m.
# T1 sequence (P61169 whole entry): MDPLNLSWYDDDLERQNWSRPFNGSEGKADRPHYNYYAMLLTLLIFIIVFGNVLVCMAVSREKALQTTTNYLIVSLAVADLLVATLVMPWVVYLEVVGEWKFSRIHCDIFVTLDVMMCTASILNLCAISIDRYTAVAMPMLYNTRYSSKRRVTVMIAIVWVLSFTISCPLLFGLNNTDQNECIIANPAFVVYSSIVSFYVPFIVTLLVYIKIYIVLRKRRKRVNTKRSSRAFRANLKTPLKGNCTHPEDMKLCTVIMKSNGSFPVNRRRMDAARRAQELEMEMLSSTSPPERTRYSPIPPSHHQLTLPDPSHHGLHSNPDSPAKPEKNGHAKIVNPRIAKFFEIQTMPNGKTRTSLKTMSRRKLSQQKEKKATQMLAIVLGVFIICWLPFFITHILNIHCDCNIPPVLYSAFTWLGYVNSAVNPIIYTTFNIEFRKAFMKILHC
SMILES,Zahl der Laufimpulse/5 min [1] [Laufimpulse/5 min],"Ki [2, 6] [nM]",Hemmung des Dopaminabfalls [3] [%],"Dauer (Wirkungsdauer) [4, 7]","minimal effective dose ([4]; MPTP-treated rhesus monkeys, 2-3 animals per compound, i.m.) [mg/kg]",Ki [2] [nM],minimal effective dose [4] [mg/kg],Todesfälle [5]
"CCCN1CCC=C(c2csc(N)n2)C1 [Substanz A, 2-Amino-4-(1-propyl-1,2,3,6-tetrahydro-pyridin-5-yl)-thiazol]",44 ± 4,36,35,,,,,
"C=CCN1CCC=C(c2csc(N)n2)C1 [Substanz B, 2-Amino-4-(1-allyl-1,2,3,6-tetrahydro-pyridin-5-yl)-thiazol]",52 ± 9,8,,2-5 Std.,0.05,,,
"C=CCN1CC=C(c2csc(N)n2)CC1 [Substanz C, 2-Amino-4-(1-allyl-1,2,3,6-tetrahydro-pyridin-4-yl)-thiazol]",32 ± 7,,47,2-4 Std.,,22,0.35,keine Todesfälle
"CCCN1CC=C(c2csc(N)n2)CC1 [Substanz D, 2-Amino-4-(1-propyl-1,2,3,6-tetrahydro-pyridin-4-yl)-thiazol]",80 ± 10,,80,2-3 Std.,,6,0.03,
"Nc1nc(C2=CCCNC2)cs1 [Substanz E, 2-Amino-4-(1,2,3,6-tetrahydro-pyridin-5-yl)thiazol-dihydrochlorid]",,3,,,,,,
"CCCN1CCC(c2csc(N)n2)CC1 [Substanz F, 2-Amino-4-(1-propyl-piperidin-4-yl)thiazol]",65 ± 17,,59,2-3 Std.,,38,0.2,
